Consider 54 compounds from patent publication US11292787B2, “Five-membered-fused-six-membered aza-aromatic ring compound, preparation method thereof, pharmaceutical composition and application thereof” (XIAMEN UNIVERSITY, priority 2017, dated 2022).

In the assay the target is T1, K-Ras protein (Homo sapiens, UniProt P01116, G12V).
T1 construct: in SW620 cells, compound I-a-1 can effectively enhance the degradation of endogenous K-RAS-G12V proteins; endogenous in cells; host or cells: SW-620
T1 sequence (P01116 1-188 isoform P01116-2 G12V): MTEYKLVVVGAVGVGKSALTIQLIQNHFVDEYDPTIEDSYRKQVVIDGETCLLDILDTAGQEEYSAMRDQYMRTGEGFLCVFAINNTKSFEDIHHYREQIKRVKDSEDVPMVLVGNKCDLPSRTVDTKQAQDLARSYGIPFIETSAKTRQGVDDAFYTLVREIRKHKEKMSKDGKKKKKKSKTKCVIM
The assay is described as follows: K-Ras protein degradation rate by Western blot in SW-620 cells. It is filed as cell-based. Conditions: 10 μM, SW-620 cells, 24 h, Western blot, relative to DMSO control; read-out: Degradation rate of compounds at 10 μM on Ras protein (%). As to the method:
Inhibitory activity of compounds on K-RAS was evaluated by the degradation rate of protein level of administration group relative to control group (Cell Rep 2014, 7, 871-882).
The specific method was as follows:
1. Cell plating: SW-620 cells in logarithmic growth phase were inoculated into a 24-well plate at 2×10^4/well, and cultured in a 37° C., 5% CO2 incubator.
2. Administering drug to cells: after 24 h of culture, various drug stocks […]; the original solution in the 24-well plate was discarded, to which was added the obtained drug solution, with the DMSO group as the blank control; after the drug solution was added, the 24-well plate was transferred to the 37° C. CO2 incubator to continue the culture.
3. Detection of K-Ras protein level: after 24 h of administration and culture, the liquid in the well was discarded, the cells were routinely collected, and rinsed twice with 1×PBS, a cell lysate was added to extract the total cellular protein, and the protein concentration was determined by BCA method. 30 μg of the protein sample was taken for SDS-polyacrylamide gel electrophoretic transmembrane, the membrane was blocked sequentially, incubated with K-Ras antibody (1:1000) and internal reference antibody β-actin (1:2000) respectively overnight at 4° C., rinsed with TBST for 5 min×3 times, then incubated with the addition of the corresponding horseradish peroxidase-labeled secondary antibody (1:5000) for 1-2 h, and rinsed with TBST for 5 min×3 times. Finally, chemiluminescence image was acquired using Image Lab software.
4. Calculation of single-point K-Ras protein degradation rate: quantitative and calibration analysis of K-Ras and β-actin were conducted using Image-Lab software, and then the intracellular K-Ras degradation rate was calculated according to the following formula: single-point K-Ras protein degradation rate (%)=(control group−administration group)/control group×100%. The drug with degradation rate ≥20% was selected for soft agar experiment.
Background: A western blot detects proteins with antibodies after separation by electrophoresis.
Consider `O=C(Nc1ccccc1)c1csc(-c2n[nH]c3ncccc23)c1` [III-a-2], for which the percent K-Ras protein degradation (single point) at 10 µM was found to be 9%.

Turning to `O=C(NC1CCCCC1)c1ccc(-c2cnc3cccnn23)cc1` [VIII-e-3], the percent K-Ras protein degradation (single point) at 10 µM is 20%.

With `O=C(NCc1c(F)cccc1Cl)c1ccc(-c2cnc3cnccn23)s1` [VII-f-1], the percent K-Ras protein degradation (single point) at 10 µM stood at 25%.

For `Cc1ccccc1CNC(=O)c1c[nH]c(-c2n[nH]c3ncccc23)c1` [III-f-51], the percent K-Ras protein degradation (single point) at 10 µM is 70%.

`O=C(NCc1ccc(Cl)c(C(F)(F)F)c1)c1c[nH]c(-c2n[nH]c3ncccc23)c1` [III-f-61]: the percent K-Ras protein degradation (single point) at 10 µM was 50%.

Take `O=C(NC1CCCCC1)c1c[nH]c(-c2cnc3cnccn23)c1` [VII-b-3]: the percent K-Ras protein degradation (single point) at 10 µM stood at 10%.

Turning to `O=C(NCc1ccccc1O)c1c[nH]c(-c2n[nH]c3ncccc23)c1` [III-f-35], the percent K-Ras protein degradation (single point) at 10 µM amounted to 50%.

For the compound `O=C(Nc1ccccc1)c1c[nH]c(-c2cnc3cnccn23)c1` [VII-b-2], the percent K-Ras protein degradation (single point) at 10 µM was found to be 20%.

For `O=C(Nc1ccccc1)c1c[nH]c(-c2n[nH]c3ncccc23)c1` [III-f-10], the percent K-Ras protein degradation (single point) at 10 µM came to 18%.

`O=C(NCc1c(F)cccc1Cl)c1coc(-c2cnc3ccccn23)c1` [IX-c-1]: the percent K-Ras protein degradation (single point) at 10 µM was 40%.

In the case of `CC(C)(C)n1nc(-c2cccc(C(=O)NCc3c(F)cccc3Cl)c2)c2c(N)ncnc21` [VI-d-1], the percent K-Ras protein degradation (single point) at 10 µM worked out at 30%.

As for `COc1cccc(CNC(=O)c2c[nH]c(-c3n[nH]c4ncccc34)c2)c1` [III-f-53], the percent K-Ras protein degradation (single point) at 10 µM worked out at 50%.

With `O=C(Nc1ccccc1)c1coc(-c2cnc3cccnn23)c1` [VIII-c-2], the percent K-Ras protein degradation (single point) at 10 µM was 10%.

`O=C(NCc1c(F)cccc1Cl)c1coc(-c2c[nH]c3ccccc23)c1` [IV-c-1]: the percent K-Ras protein degradation (single point) at 10 µM is 30%.

As to `O=C(NCc1c(F)cccc1Cl)c1ccc(-c2n[nH]c3ccccc23)[nH]1` [I-g-1], the percent K-Ras protein degradation (single point) at 10 µM was determined as 30%.

On to `O=C(NCc1c(F)cccc1Cl)c1ccc(-c2nnc3ccccn23)cc1` [X-e-1], for which the percent K-Ras protein degradation (single point) at 10 µM is 10%.

In the case of `O=C(NC1CCCCC1)c1csc(-c2c[nH]c3ccccc23)c1` [IV-a-3], the percent K-Ras protein degradation (single point) at 10 µM came out at 35%.

For the compound `O=C(Nc1ccccc1)c1csc(-c2c[nH]c3ccccc23)c1` [IV-a-2], the percent K-Ras protein degradation (single point) at 10 µM is 50%.

`O=S(=O)(Cc1ccc(Cl)cc1)c1c[nH]c(-c2n[nH]c3ncccc23)c1` [III-h-5]: the percent K-Ras protein degradation (single point) at 10 µM worked out at 16%.

Consider `COc1ccc(NC(=O)c2c[nH]c(-c3n[nH]c4ncccc34)c2)cc1` [III-f-17], for which the percent K-Ras protein degradation (single point) at 10 µM was 19%.

With `O=C(NCc1c(F)cccc1Cl)c1cccc(-c2cnc3cccnn23)c1` [VIII-d-1], the percent K-Ras protein degradation (single point) at 10 µM was 2%.

For the compound `O=C(Nc1ccc(OC(F)(F)F)cc1)c1c[nH]c(-c2n[nH]c3ncccc23)c1` [III-f-18], the percent K-Ras protein degradation (single point) at 10 µM was determined as 15%.

In the case of `O=C(NCc1c(F)cccc1Cl)c1cccc(-c2n[nH]c3ccccc23)c1` [I-d-1], the percent K-Ras protein degradation (single point) at 10 µM stood at 2%.

For the compound `O=C(NC1CCCCC1)c1ccc(-c2cnc3cccnn23)s1` [VIII-f-3], the percent K-Ras protein degradation (single point) at 10 µM was found to be 15%.

In the case of `O=C(NCc1ccc(Br)cc1)c1c[nH]c(-c2n[nH]c3ncccc23)c1` [III-f-43], the percent K-Ras protein degradation (single point) at 10 µM stood at 40%.

Turning to `O=C(NCc1cccc(C(F)(F)F)c1)c1csc(-c2n[nH]c3ccccc23)c1` [I-a-8], the percent K-Ras protein degradation (single point) at 10 µM is 20%.

As for `O=C(Nc1c(F)cccc1Cl)c1ccc(-c2n[nH]c3ncccc23)cc1` [III-d-3], the percent K-Ras protein degradation (single point) at 10 µM stood at 27%.

On to `O=C(Nc1ccccc1)c1ccc(-c2c[nH]c3ccccc23)cc1` [IV-e-2], for which the percent K-Ras protein degradation (single point) at 10 µM was 20%.

For `O=C(NC1CCCCC1)c1ccc(-c2c[nH]c3ccccc23)cc1` [IV-e-3], the percent K-Ras protein degradation (single point) at 10 µM stood at 40%.

On to `O=C(NCc1ccccc1Cl)c1c[nH]c(-c2n[nH]c3ncccc23)c1` [III-f-47], for which the percent K-Ras protein degradation (single point) at 10 µM is 50%.

Consider `O=C(NCc1c(F)cccc1Cl)c1c[nH]c(-c2n[nH]c3ccccc23)c1` [I-b-1], for which the percent K-Ras protein degradation (single point) at 10 µM stood at 50%.

As to `O=C(NCc1c(F)cccc1Cl)c1ccc(-c2cnc3cnccn23)cc1` [VII-e-1], the percent K-Ras protein degradation (single point) at 10 µM was 30%.

As for `O=C(NCc1c(F)cccc1Cl)c1coc(-c2c[nH]c3ncccc23)c1` [II-b-1], the percent K-Ras protein degradation (single point) at 10 µM came to 52%.

As for `O=C(Nc1ccccc1)c1ccc(-c2n[nH]c3ncccc23)cc1` [III-d-2], the percent K-Ras protein degradation (single point) at 10 µM turned out to be 18%.

For the compound `O=C(NCc1c(F)cccc1Cl)c1coc(-c2n[nH]c3ncccc23)c1` [III-b-1], the percent K-Ras protein degradation (single point) at 10 µM was 35%.

On to `N#Cc1ccc(CNC(=O)c2c[nH]c(-c3n[nH]c4ncccc34)c2)cc1` [III-f-31], for which the percent K-Ras protein degradation (single point) at 10 µM turned out to be 45%.

As to `O=C(NCc1cccc(C(F)(F)F)c1)c1csc(-c2cnc3cccnn23)c1` [VIII-a-2], the percent K-Ras protein degradation (single point) at 10 µM came out at 60%.

Consider `O=C(Nc1ccccc1)c1c[nH]c(-c2cnc3cccnn23)c1` [VIII-b-2], for which the percent K-Ras protein degradation (single point) at 10 µM was determined as 10%.

`O=C(NCc1cc(F)cc(C(F)(F)F)c1)c1c[nH]c(-c2n[nH]c3ncccc23)c1` [III-f-58]: the percent K-Ras protein degradation (single point) at 10 µM was 75%.

Take `O=C(NCc1c(F)cccc1F)c1c[nH]c(-c2n[nH]c3ncccc23)c1` [III-f-3]: the percent K-Ras protein degradation (single point) at 10 µM is 6%.

For the compound `O=C(NCc1ccc(C(F)(F)F)cc1)c1c[nH]c(-c2n[nH]c3ncccc23)c1` [III-f-34], the percent K-Ras protein degradation (single point) at 10 µM is 60%.

Regarding `Cc1ccc(CNC(=O)c2c[nH]c(-c3n[nH]c4ncccc34)c2)cc1` [III-f-52], the percent K-Ras protein degradation (single point) at 10 µM was 35%.

Turning to `O=C(NCc1c(F)cccc1Cl)c1coc(-c2n[nH]c3ccccc23)c1` [I-c-1], the percent K-Ras protein degradation (single point) at 10 µM worked out at 11%.

Regarding `O=C(NCc1cc(F)ccc1F)c1c[nH]c(-c2n[nH]c3ncccc23)c1` [III-f-56], the percent K-Ras protein degradation (single point) at 10 µM is 70%.

For `O=C(NC1CCCCC1)c1ccc(-c2cnc3cnccn23)cc1` [VII-e-3], the percent K-Ras protein degradation (single point) at 10 µM is 30%.

Regarding `O=C(NCc1c(F)cccc1Cl)c1csc(-c2c[nH]c3ccccc23)c1` [IV-a-1], the percent K-Ras protein degradation (single point) at 10 µM turned out to be 10%.

For `O=C(NCc1cc(C(F)(F)F)cc(C(F)(F)F)c1)c1c[nH]c(-c2n[nH]c3ncccc23)c1` [III-f-59], the percent K-Ras protein degradation (single point) at 10 µM was determined as 60%.

Consider `O=C(Nc1ccccc1)c1ccc(-c2n[nH]c3ccccc23)s1` [I-f-2], for which the percent K-Ras protein degradation (single point) at 10 µM stood at 25%.

In the case of `O=S(=O)(Cc1ccccc1)c1c[nH]c(-c2n[nH]c3ncccc23)c1` [III-h-1], the percent K-Ras protein degradation (single point) at 10 µM is 14%.

With `O=C(NCc1c(F)cccc1Cl)c1csc(-c2cnc3cccnn23)c1` [VIII-a-1], the percent K-Ras protein degradation (single point) at 10 µM came out at 40%.

Turning to `O=S(=O)(Cc1c(F)cccc1Cl)c1c[nH]c(-c2n[nH]c3ncccc23)c1` [III-h-4], the percent K-Ras protein degradation (single point) at 10 µM came to 41%.

With `O=C(NCCc1ccccc1)c1c[nH]c(-c2n[nH]c3ncccc23)c1` [III-f-24], the percent K-Ras protein degradation (single point) at 10 µM turned out to be 13%.

In the case of `O=C(NCc1c(F)cccc1Cl)c1coc(-c2cnc3cccnn23)c1` [VIII-c-1], the percent K-Ras protein degradation (single point) at 10 µM worked out at 12%.

For `O=C(NCc1c(F)cccc1Cl)c1cccc(-c2cnc3ccccn23)c1` [IX-d-1], the percent K-Ras protein degradation (single point) at 10 µM is 30%.
